Laboratory results taken from patent publication US9868937B2, “Cell and gene based methods to improve cardiac function” (University of Washington, priority 2011, dated 2018).
“Also recorded” adds a separate entry of the source.

Tested on: mouse aortic smooth muscle
Experiment: Mouse aortic smooth muscle contraction in skinned muscle strips with dATP vs. ATP
Type: biochemical
From the text: dATP has no affect on mouse aortic smooth muscle force development. To begin studying potential systemic effects of elevated dATP, we collaborated with Dr. Frank Brozovich (Mayo Clinic) to determine if dATP affects mouse aortic smooth muscle contraction.

With `Nc1ncnc2c1ncn2[C@H]1C[C@H](O)[C@@H](COP(=O)(O)OP(=O)(O)OP(=O)(O)O)O1` [dATP, 2 deoxy-ATP] the “level of myosin light chain phosphorylation” value (control measurements (data not shown)) was “did not change” and the “aortic smooth muscle contraction” value (dATP vs. ATP as the contractile substrate) was “did not differ; also recorded: did not alter contraction”.
